This is an account of results in patent publication US6403343B2, “Method of producing a taxane-type diterpene and a method of obtaining cultured cells which produce the taxane-type dilterpene at a high rate” (Mitsui Chemicals, Inc., priority 1993, dated 2002).

Format in all cases: cell-based
Test [1] deals with cultured cells of Taxus baccata LINN. The experiment in a line: Taxane-type diterpene yield and cell yield, shake culture of Taxus baccata cells with a jasmonic acid (or jasmone) added. The note with it: for taxol inducing activity: see Comparative Example No. 24.
For test [2] the test system is unchanged. The experiment in a line: Growth rate and taxane yield, shake culture under controlled oxygen concentration in the gas phase, with or without methyl jasmonate. Conditions: max oxygen in gas phase 10%; for yield of baccatin III / yield of cephalomannine / yield of taxol: cell + medium. How it is done:
One gram (fresh weight) of the callus was inoculated to an Erlenmeyer flask containing 20 ml of liquid Woody Plant Medium to which the above-mentioned component had been added to give the same concentration and shake culture was carried out with a rotary shaker (amplification of 25 mm, 100 rpm) and the callus was subcultured in every 21 days to accelerate the growth rate of the callus.
One gram (fresh weight) of the cultured cells thus obtained was inoculated to an Erlenmeyer flask containing 20 ml of liquid Woody Plant Medium to which the above-mentioned component had been added to give the same concentration, and the flask was placed in a chamber (the capacity of 3000 ml) having a gas feed opening and a gas discharge opening, then the chamber was closed hermetically, and air was so mixed with nitrogen that the concentration of the oxygen in a gas to be supplied to the cells to be cultured became 4-15%, and while the gas was supplied through the feed opening at the rate of 25 ml per minute, shake culture was carried out at 25° C. for 21 days.
After completing the culture, cultured cells of Taxus baccata LINN were harvested by filtration and lyophilized, then the dry weight was measured to obtain the growth rate thereof. Taxane-type diterpenes were extracted from the dried cells with methanol and the like, and they were determined by comparing with standard taxol, cephalomannine, and baccatin III using high performance liquid chromatography to measure the yields of the taxane-type diterpenes.

Test [3] shares this test system. The test can be described thus: Two-stage culture: first stage with potassium peroxodisulfate, second stage with methyl jasmonate; cell yield and taxol yield. The note with it: for yield of cells, second stage of the culture / yield of taxol, second stage of the culture: second stage with methyl jasmonate 100 μM on the 14th day; for content of taxol, first stage of the culture / yield of cells, first stage of the culture: added 1st day. The protocol: After completing the culture, the cultured cells were harvested by filtration and a part of the cells were used as seed cells for the second stage of the culture and the rest of the cells were subjected to the measurement of the cell yield and the taxane content in the cells. Accordingly, 1 g (fresh weight) of the cultured cells were inoculated to an Erlenmeyer flask containing 20 ml of liquid Woody Plant Medium to which naphthalenacetic acid had been added to give the concentration of 10^−5M and shake culture was carried out at 25° C. for 14 days. On the 14th day of the culture, methyl jasmonate was added to the medium to give the concentration in the medium of 100 μM and the culture was further continued for another 7 days. On the other hand, the rest of the cells obtained in the first stage of the culture were lyophilized, then the dry weight was measured to obtain the cell yield thereof per liter of the liquid medium. The content of taxol in the dried cells was measured by high performance liquid chromatography. The yield of the cells and the yield of taxol were measured for the cells obtained by second stage of the culture in the same manner as that for the cells obtained in the first stage of the culture.

Test [4] has the same test system. The experiment in a line: Growth rate and taxane yield, 21-day shake culture of Taxus baccata cells with heavy metal compound, amine, antiethylene agent or Ethrel added. The note with it: Ethrel 10^−3 M added at the 14th day, no acetylsalicylic acid, oxygen 20%.
Setting [5] is: first stage with potassium peroxodisulfate 5 × 10^−3M.
Where [6] appears, read: first stage with potassium peroxodisulfate 5 × 10^−4M.
[7] abbreviates: first stage with potassium peroxodisulfate 10^−3M.
The mark [8] stands for this setting: first stage with potassium peroxodisulfate 10^−4M.
The mark [9] stands for this setting: first stage with potassium peroxodisulfate 10^−5M.
The mark [10] stands for this setting: potassium peroxodisulfate 5 × 10^−3M in the medium.
The mark [11] stands for this setting: potassium peroxodisulfate 5 × 10^−4M in the medium.
Setting [12] is: potassium peroxodisulfate 10^−3M in the medium.
Setting [13] is: potassium peroxodisulfate 10^−4M in the medium.
[14] abbreviates: potassium peroxodisulfate 10^−5M in the medium.
Where [15] appears, read: 0.01 μM added on 14th day, 7 more days.
The mark [16] stands for this setting: 0.1 μM added on 14th day, 7 more days.
The mark [17] stands for this setting: 1 μM added on 14th day, 7 more days.
Setting [18] is: 10 μM added on 14th day, 7 more days.
Setting [19] is: 50 μM added on 14th day, 7 more days.
Setting [20] is: 100 μM added on 14th day, 7 more days.
Setting [21] is: 250 μM added on 14th day, 7 more days.
Where [22] appears, read: 500 μM added on 14th day, 7 more days.
[23] abbreviates: 1000 μM added on 14th day, 7 more days.

For methyl jasmone [reference compound], the taxol inducing activity result in test [1] was “low”.
Take `CCC=CCC1C(=O)CCC1CC(=O)OC` (centres unmarked) [Example 66]: in test [2] (methyl jasmonate 10 μM), the growth rate is given as 2.82 times, the “total yield of taxane” value stood at 14.73 mg/L, the “yield of baccatin III” value stood at 2.26 mg/L and the yield of cephalomannine was 1.73 mg/L. In addition, in test [2] (methyl jasmonate 10 μM), the yield of taxol turned out to be 10.24 mg/L. Moreover, in test [2] (methyl jasmonate 100 μM), the growth rate turned out to be 2.45 times, the “total yield of taxane” value was found to be 36.05 mg/L, the “yield of baccatin III” value is 11.32 mg/L and the yield of cephalomannine was determined as 2.29 mg/L. Further, the yield of taxol in test [2] (methyl jasmonate 100 μM) is 22.44 mg/L. Moreover, in test [2] (methyl jasmonate 1000 μM), the growth rate is 1.47 times, the “total yield of taxane” value is 8.61 mg/L, the “yield of baccatin III” value stood at 2.10 mg/L and the yield of cephalomannine was 1.47 mg/L. Further, the yield of taxol in test [2] (methyl jasmonate 1000 μM) was 5.04 mg/L.
As to `CC/C=C\CC1=C(C)CCC1=O` [jasmone, reference compound], the taxol inducing activity entry in test [1] was “low”.
As to `O=S(=O)([O-])OOS(=O)(=O)[O-].[K+].[K+]` [Example 77], the “yield of cells, second stage of the culture” value was 12.1 g/L in test [3] (setting [5]); 14.4 g/L in test [3] (setting [6]); 13.0 g/L in test [3] (setting [7]); 15.0 g/L in test [3] (setting [8]); 15.6 g/L in test [3] (setting [9]). Also, the “yield of taxol, second stage of the culture” value in test [3] (setting [5]) came to 11.7 ppm; in test [3] (setting [6]), 16.3 ppm; in test [3] (setting [7]) it was 13.6 ppm; in test [3] (setting [8]) it was 20.4 ppm; in test [3] (setting [9]), 14.0 ppm. Also, the “content of taxol, first stage of the culture” value in test [3] (setting [10]) is reported as 45 ppm; in test [3] (setting [11]), 183 ppm; in test [3] (setting [12]) it was 84 ppm; in test [3] (setting [13]) it was 250 ppm; in test [3] (setting [14]) it was 97 ppm. Further, the “yield of cells, first stage of the culture” value in test [3] (setting [10]) stood at 14.0 g/L; in test [3] (setting [11]) it was 15.5 g/L; in test [3] (setting [12]) it was 15.2 g/L; in test [3] (setting [13]), 16.2 g/L; in test [3] (setting [14]) it was 17.1 g/L.
With `CCC=CCC1=C(C)CCC1=O` [Comparative Example 24], the cell yield in test [1] (jasmone 0.1 μM) was 12.2 g/L; in test [1] (jasmone 1 μM) it was 12.1 g/L; in test [1] (jasmone 10 μM), 11.3 g/L; in test [1] (jasmone 100 μM) it was 11.3 g/L; in test [1] (jasmone 1000 μM), 10.9 g/L. In addition, the “yield of baccatin III” value in test [1] (jasmone 0.1 μM, cell + medium) is 0.3 mg/L; in test [1] (jasmone 1 μM, cell + medium), 0.4 mg/L; in test [1] (jasmone 10 μM, cell + medium), 0.3 mg/L; in test [1] (jasmone 100 μM, cell + medium) it was 0.3 mg/L; in test [1] (jasmone 1000 μM, cell + medium) it was 0.2 mg/L. Also, the yield of cephalomannine in test [1] (jasmone 0.1 μM, cell + medium) is 1.2 mg/L; in test [1] (jasmone 1 μM, cell + medium), 1.0 mg/L; in test [1] (jasmone 10 μM, cell + medium) it was 0.8 mg/L; in test [1] (jasmone 100 μM, cell + medium) it was 0.6 mg/L; in test [1] (jasmone 1000 μM, cell + medium), 0.8 mg/L. Further, the yield of taxol in test [1] (jasmone 0.1 μM, cell + medium) was determined as 3.0 mg/L; in test [1] (jasmone 1 μM, cell + medium) it was 3.2 mg/L; in test [1] (jasmone 10 μM, cell + medium), 3.3 mg/L; in test [1] (jasmone 100 μM, cell + medium) it was 3.2 mg/L; in test [1] (jasmone 1000 μM, cell + medium), 2.5 mg/L.
As to `CC/C=C\C[C@H]1C(=O)CC[C@@H]1CC(=O)O` [jasmonic acid], the cell yield in test [1] (setting [15]) worked out at 12.2 g/L; in test [1] (setting [16]), 12.2 g/L; in test [1] (setting [17]), 11.6 g/L; in test [1] (setting [18]), 11.5 g/L; in test [1] (setting [19]) it was 11.4 g/L; in test [1] (setting [20]), 10.3 g/L. In addition, the cell yield stood at 10.1 g/L in test [1] (setting [21]), 10.2 g/L in test [1] (setting [22]) and 6.7 g/L in test [1] (setting [23]). In addition, the “yield of baccatin III” value in test [1] (setting [15]) was 0.3 mg/L; in test [1] (setting [16]), 0.3 mg/L; in test [1] (setting [17]) it was 0.3 mg/L; in test [1] (setting [18]), 0.5 mg/L; in test [1] (setting [19]) it was 2.5 mg/L; in test [1] (setting [20]), 7.2 mg/L. Moreover, the “yield of baccatin III” value in test [1] (setting [21]) was found to be 10.6 mg/L; in test [1] (setting [22]) it was 12.0 mg/L; in test [1] (setting [23]), 1.2 mg/L. Moreover, the yield of cephalomannine in test [1] (setting [15]) came to 0.6 mg/L; in test [1] (setting [16]), 0.6 mg/L; in test [1] (setting [17]), 0.8 mg/L; in test [1] (setting [18]), 2.6 mg/L; in test [1] (setting [19]), 2.2 mg/L; in test [1] (setting [20]) it was 3.0 mg/L. The yield of cephalomannine in test [1] (setting [21]) came to 2.7 mg/L; in test [1] (setting [22]), 1.1 mg/L; in test [1] (setting [23]) it was 0.5 mg/L. In addition, the yield of taxol amounted to 2.2 mg/L in test [1] (setting [15]); 3.4 mg/L in test [1] (setting [16]); 5.9 mg/L in test [1] (setting [17]); 8.3 mg/L in test [1] (setting [18]); 10.2 mg/L in test [1] (setting [19]); 12.8 mg/L in test [1] (setting [20]). Besides, the yield of taxol in test [1] (setting [21]) amounted to 14.7 mg/L; in test [1] (setting [22]), 11.1 mg/L; in test [1] (setting [23]), 1.2 mg/L.
Consider `O=P(O)(O)CCCl` [Reference Example 2], for which, in test [4], the growth rate is on record as 2.7 times and the “total yield of taxane” value was 0.30 mg/L. In addition, in test [4] (cell + medium), the “yield of baccatin III” value was found to be 0.05 mg/L, the yield of cephalomannine is 0.16 mg/L and the yield of taxol stood at 0.09 mg/L.
